Assay: Inhibitory activity against Mannosidase in rat liver
Work on `O[C@@H]1[C@H]2[C@@H](O)CCCN2C[C@H]1O` yielded an IC50 of about 50 µM. `O[C@H]1[C@H]2[C@@H](O)CCCN2C[C@H]1O` showed an IC50 of about 50 µM. In the case of `O[C@H]1[C@@H]2[C@H](O)CCCN2C[C@H]1O`, the IC50 is reported as about 10 µM. `OC1CN2CCCCC2C1O` (centres undefined) showed an IC50 of 7500 µM.

Reference: ChEMBL document CHEMBL1124582, “Design of potential anti-HIV agents. 1. Mannosidase inhibitors” (J Med Chem, 1989)
